{"source": "patent US20120302636A1", "about": "“METHOD OF TREATING A DISORDER ASSOCIATED WITH MTP” (priority 2009, published 2012)", "key": {"LDL-C levels": {"test_system": "LDL-C levels", "assay": "Example 4: 8-week study in hyperlipidemia, efficacy", "format": "in vivo, human", "protocol": "One hundred five Japanese patients with hyperlipidemia (LDL-C between 140 and 220 mg/dL; TG≦400 mg/dL) participated in the study. […] For the efficacy analysis, 95 subjects were observed (0.5 mg BID: 25 subjects, 1 mg BID: 24 subjects, 2 mg BID: 22 subjects, 4 mg BID: 24 subjects).\nThe objective was to administer the compound of formula (I) orally to hyperlipidemic patients at a dose of 0.5, 1, 2, or 4 mg as capsules twice daily after the morning (e.g., breakfast) and evening meal (e.g., dinner) for eight weeks in order to explore a dose range in which the compound of formula (I) reduced LDL-C levels. In addition, the effects on lipid metabolism, safety, and pharmacokinetics of the compound of formula (I) were evaluated."}, "[1]": {"assay": "Example 5: fixed-dose or escalating doses, safety", "format": "in vivo, human", "protocol": "(§1) Fifty-two Japanese patients with hyperlipidemia (LDL-C between 140 and 220 mg/dL; TG≦400 mg/dL) participated in the study. […] One group received a fixed dose of 2 mg per tablet through the entire study. The other group received escalating doses of 0.5 mg (weeks 1-4), 1 mg (weeks 5-8), and 2 mg (weeks 9-12). For the efficacy analysis, 50 subjects were observed (25 in the fixed-dose group and 25 in the dose escalation group).\n(§2) The objective of this study was preliminary evaluation of the efficacy (based on serum lipid levels), safety, and pharmacokinetics of the compound of formula (I) administered orally twice daily after breakfast and supper for 12 weeks as a fixed dose (4 mg/day) or escalating dose (1 mg/day, 2 mg/day and 4 mg/day) regimen in patients with hyperlipidemia."}, "Example 8: safety": {"assay": "Example 8: safety", "format": "in vivo, human", "text": "The study had 180 participants."}, "[2]": {"assay": "Earlier phase 1 single dose clinical study", "format": "in vivo, human"}, "[3]": {"assay": "Example 5: pharmacokinetics", "format": "in vivo, human", "settings": "subjects other than two", "protocol": "as §1, §2"}, "[4]": {"assay": "Example 8: 12-week study in obese subjects, efficacy", "settings": "for mean change from baseline to EOT in body weight: 12 weeks"}, "[5]": {"assay": "Example 8: pharmacokinetics (trough concentrations)"}, "[6]": {"assay": "Example 3: pharmacokinetics", "format": "in vivo, human", "settings": "all dose groups"}, "serum lipid levels": {"test_system": "serum lipid levels", "assay": "Example 3: serum lipid levels", "format": "in vivo, human", "settings": "active groups"}, "[7]": {"assay": "Example 7: ascending dose study in obese subjects, pharmacokinetics"}}}
{"smiles": "CCOC(=O)C(COC(=O)Cc1ccc(NC(=O)c2ccccc2-c2ccc(C(F)(F)F)cc2)c(C(=O)N(C)C)c1)(C(=O)OCC)c1ccccc1", "note": "[compound of formula (I), diethyl 2-((2-(3-(dimethylcarbamoyl)-4-(4′-(trifiuoromethyl)biphenyl-2-ylcarboxamido)phenyl)acetoxy)methyl)-2-phenyl malonate]", "values": [{"measurement": "mean percent change in LDL-C levels at Week 8 from baseline", "setting": "LDL-C levels; 0.5 mg BID", "value": "−4.3", "unit": "%"}, {"measurement": "mean percent change in LDL-C levels at Week 8 from baseline", "setting": "LDL-C levels; 1 mg BID", "value": "−4.5", "unit": "%"}, {"measurement": "mean percent change in LDL-C levels at Week 8 from baseline", "setting": "LDL-C levels; 2 mg BID", "value": "−12.2", "unit": "%"}, {"measurement": "mean percent change in LDL-C levels at Week 8 from baseline", "setting": "LDL-C levels; 4 mg BID", "value": "−12.3", "unit": "%"}, {"measurement": "ApoB and ApoE levels", "setting": "LDL-C levels; 2 and 4 mg BID", "value": "decreased"}, {"measurement": "TC levels", "setting": "LDL-C levels; 2 and 4 mg BID, throughout treatment", "value": "decreased"}, {"measurement": "insulin, hemoglobin Alc, adiponectin, or leptin level", "setting": "LDL-C levels; in vivo", "value": "did not affect"}, {"measurement": "ApoB48, ApoA-I, ApoA-II, ApoC-II, and ApoC-III levels", "setting": "LDL-C levels; treatment period", "value": "no significant changes"}, {"measurement": "time course of TG or HDL-C levels", "setting": "LDL-C levels; treatment period", "value": "no definite trend or dose correlation"}, {"measurement": "events of gastrointestinal disorders", "setting": "[1]; dose escalation group", "value": 14}, {"measurement": "events of infections and infestations", "setting": "[1]; dose escalation group", "value": 6}, {"measurement": "events of laboratory test", "setting": "[1]; dose escalation group", "value": 11}, {"measurement": "incidence of gastrointestinal disorders (SOC)", "setting": "[1]; dose escalation group", "value": 34.6, "unit": "%"}, {"measurement": "incidence of infections and infestations (SOC)", "setting": "[1]; dose escalation group", "value": 19.2, "unit": "%"}, {"measurement": "incidence of laboratory test (SOC)", "setting": "[1]; dose escalation group", "value": 23.1, "unit": "%"}, {"measurement": "incidence of moderate adverse events", "setting": "[1]; dose escalation group", "value": 15.4, "unit": "%"}, {"measurement": "number of adverse events", "setting": "[1]; dose escalation group", "value": 37}, {"measurement": "subjects with adverse events (incidence)", "setting": "[1]; dose escalation group", "value": 65.4, "unit": "%"}, {"measurement": "subjects with moderate diarrhea", "setting": "[1]; dose escalation group", "value": "three"}, {"measurement": "incidence of gastrointestinal disorders", "setting": "[1]; dose escalation group, Weeks 9 to 12 (4 mg/day)", "value": 20.0, "unit": "%"}, {"measurement": "events of gastrointestinal disorders", "setting": "[1]; fixed-dose group", "value": 25}, {"measurement": "events of infections and infestations", "setting": "[1]; fixed-dose group", "value": "four"}, {"measurement": "events of laboratory test", "setting": "[1]; fixed-dose group", "value": "nine"}, {"measurement": "incidence of gastrointestinal disorders (SOC)", "setting": "[1]; fixed-dose group", "value": 50.0, "unit": "%"}, {"measurement": "incidence of infections and infestations (SOC)", "setting": "[1]; fixed-dose group", "value": 15.4, "unit": "%"}, {"measurement": "incidence of laboratory test (SOC)", "setting": "[1]; fixed-dose group", "value": 23.1, "unit": "%"}, {"measurement": "incidence of moderate adverse events", "setting": "[1]; fixed-dose group", "value": 15.4, "unit": "%"}, {"measurement": "number of adverse events", "setting": "[1]; fixed-dose group", "value": 45}, {"measurement": "subjects with adverse events (incidence)", "setting": "[1]; fixed-dose group", "value": 65.4, "unit": "%"}, {"measurement": "subjects with moderate diarrhea", "setting": "[1]; fixed-dose group", "value": "four"}, {"measurement": "incidence of gastrointestinal disorders", "setting": "[1]; fixed-dose group, Weeks 1 to 4 (4 mg/day)", "value": 46.2, "unit": "%"}, {"measurement": "systolic and diastolic blood pressure, pulse rate, body temperature, body weight, ultrasonography", "setting": "[1]; in vivo", "value": "No clinically relevant abnormal changes"}, {"measurement": "death or serious adverse events", "setting": "[1]; tablets BID, 12 weeks", "value": "No death or other serious adverse events occurred"}, {"measurement": "incidence of drug-related decreased appetite", "setting": "Example 8: safety; 1 mg BID", "value": 4.4, "unit": "%"}, {"measurement": "incidence of drug-related decreased appetite", "setting": "Example 8: safety; 2.5 mg BID", "value": 20.0, "unit": "%"}, {"measurement": "subjects prematurely discontinued due to diarrhea", "setting": "Example 8: safety; 2.5 mg BID", "value": 1, "unit": "subject"}, {"measurement": "incidence of drug-related decreased appetite", "setting": "Example 8: safety; 3.5 mg BID", "value": 22.2, "unit": "%"}, {"measurement": "subjects prematurely discontinued due to diarrhea", "setting": "Example 8: safety; 3.5 mg BID", "value": 2, "unit": "subject"}, {"measurement": "tolerability", "setting": "Example 8: safety; 1 to 3.5 mg BID, 12 weeks", "value": "generally well tolerated"}, {"measurement": "fat-soluble vitamins or coagulation factors", "setting": "Example 8: safety; in vivo", "value": "no clinically significant changes"}, {"measurement": "liver function parameters (AST, ALT, alkaline phosphatase) PCS values", "setting": "Example 8: safety; in vivo", "value": "no subject had a PCS value"}, {"measurement": "doses at which diarrhea was observed", "setting": "[2]", "value": "≥ 60", "unit": "mg"}, {"measurement": "Cmin of the compound of formula (I)", "setting": "[3]", "value": "below the lower limit of quantization"}, {"measurement": "mean change from baseline to EOT in body weight", "setting": "[4]; 1 mg BID", "value": -0.70, "unit": "kg"}, {"measurement": "mean change from baseline to EOT in body weight", "setting": "[4]; 2.5 mg BID", "value": -1.74, "unit": "kg"}, {"measurement": "mean change from baseline to EOT in body weight", "setting": "[4]; 3.5 mg BID", "value": -2.19, "unit": "kg"}, {"measurement": "waist circumference, waist-hip ratio, percent body fat vs placebo", "setting": "[4]; after 12 weeks", "value": "No statistically significant differences"}, {"measurement": "mean decreases from baseline LDL-C", "setting": "[4]; after 12 weeks, 3 compound groups", "value": "−5.90 to −8.27", "unit": "mg/dL"}, {"measurement": "triglyceride levels", "setting": "[4]; all treatment groups", "value": "increased from baseline"}, {"measurement": "TC and ApoB", "setting": "[4]; human, in vivo", "value": "improvements (reductions)"}, {"measurement": "weight loss by perilipin gene mutation", "setting": "[4]; human, in vivo", "value": "no differences"}, {"measurement": "trough concentrations of the compound of formula (I)", "setting": "[5]; 1 mg BID", "value": "not quantifiable"}, {"measurement": "trough concentrations of the compound of formula (I)", "setting": "[5]; 2.5 and 3.5 mg BID", "value": "quantifiable in a few subjects"}, {"measurement": "plasma concentrations of the compound of formula (I)", "setting": "[6]", "value": "below the limit of quantization"}, {"measurement": "postprandial elevation in TG, HDL-TG, LDL-TG, Midband-TG, and CM-TG", "setting": "serum lipid levels", "value": "inhibited a postprandial elevation"}, {"measurement": "plasma concentrations of the compound of formula (I)", "setting": "[7]; 1 mg, Day 14", "value": "not quantifiable"}, {"measurement": "time up to which concentrations were quantifiable", "setting": "[7]; 2.5 mg and 3.5 mg groups, Day 14", "value": "up to 5 hr"}, {"measurement": "subjects with quantifiable concentrations", "setting": "[7]; 2.5 mg, Day 14", "value": "2 of 8 subjects"}, {"measurement": "subjects with quantifiable concentrations", "setting": "[7]; 3.5 mg, Day 14", "value": "7 of 8 subjects"}, {"measurement": "subjects with quantifiable concentrations", "setting": "[7]; 5 mg, Day 14", "value": "2 of 3 subjects"}, {"measurement": "time for which concentrations were quantifiable", "setting": "[7]; 5 mg, Day 14", "value": "at least 6 hr"}, {"measurement": "plasma concentrations of the compound of formula (I)", "setting": "[7]; 1 to 5 mg, Day 1", "value": "generally below the limit of quantization"}, {"measurement": "Cmax and AUC0-τ dose proportionality", "setting": "[7]; 2.5 to 5 mg", "value": "approximately dose proportional"}, {"measurement": "systemic exposure", "setting": "[7]; BID for 14 days", "value": "negligible"}, {"measurement": "parent/metabolite ratio for AUC0-τ", "setting": "[7]; all dose levels", "value": "less than 0.01"}, {"measurement": "parent/metabolite ratio for Cmax", "setting": "[7]; all dose levels", "value": "less than 0.03"}, {"measurement": "oral clearance", "setting": "[7]; quantifiable dose groups", "value": "high oral clearance"}]}
